# Calls of active or inactive are those of the source. No cut-off for these calls is given here.
# Assays:
# [1] = molecular target: Receptor-type tyrosine-protein kinase FLT3 (Homo sapiens, UniProt P36888, ITD); type: cell-based, Sf9
# [2] = molecular target: Macrophage colony-stimulating factor 1 receptor (Homo sapiens, UniProt P07333); assay: Binding affinity to recombinant human CSF1R (564 to 939 residues) expressed in bacterial expression system by Kinomescan method
# [3] = test system: Receptor-type tyrosine-protein kinase FLT3 (Homo sapiens), P36888 [UNDEFINED MUTATION]; assay: Inhibition of FLT3 ITD mutant expressed in human MV4-11 cells assessed as reduction in FLT3 phosphorylation at 0.8 to 500 nM incubated for 6 hrs by Western blot analysis; type: cell-based
# [4] = test system: Receptor-type tyrosine-protein kinase FLT3 (Homo sapiens), P36888 [UNDEFINED MUTATION]; assay: Inhibition of FLT3 ITD mutant expressed in human MV4-11 cells assessed as reduction in STAT5 level at > 20 nM incubated for 6 hrs by Western blot analysis relative to control; type: cell-based
# MV4-11 [5] = assay: Induction of cell cycle arrest in human MV4-11 cells assessed as G0/G1 phase at 4 nM incubated for 48 hrs by propidium iodide staining based flow cytometry analysis (reference value: 54.82 %); type: functional
# MV4-11 [6] = assay: Induction of cell cycle arrest in human MV4-11 cells assessed as S phase at 4 nM incubated for 48 hrs by propidium iodide staining based flow cytometry analysis (reference value: 20.14 %); type: functional
# MV4-11 [7] = assay: Induction of cell cycle arrest in human MV4-11 cells assessed as G2/M phase at 4 nM incubated for 48 hrs by propidium iodide staining based flow cytometry analysis (reference value: 24.88 %); type: functional
# MV4-11 [8] = assay: Induction of cell cycle arrest in human MV4-11 cells assessed as S phase at 20 nM incubated for 48 hrs by propidium iodide staining based flow cytometry analysis (reference value: 20.14 %); type: functional
# MV4-11 [9] = assay: Induction of cell cycle arrest in human MV4-11 cells assessed as G2/M phase at 20 nM incubated for 48 hrs by propidium iodide staining based flow cytometry analysis (reference value: 24.88 %); type: functional
# MV4-11 [10] = assay: Induction of cell cycle arrest in human MV4-11 cells assessed as G0/G1 phase at 100 nM incubated for 48 hrs by propidium iodide staining based flow cytometry analysis (reference value: 54.82 %); type: functional
# MV4-11 [11] = assay: Induction of cell cycle arrest in human MV4-11 cells assessed as S phase at 100 nM incubated for 48 hrs by propidium iodide staining based flow cytometry analysis (reference value: 20.14 %); type: functional
# MV4-11 [12] = assay: Induction of cell cycle arrest in human MV4-11 cells assessed as G2/M phase at 100 nM incubated for 48 hrs by propidium iodide staining based flow cytometry analysis (reference value: 24.88 %); type: functional
# MV4-11 [13] = assay: Induction of apoptosis in human MV4-11 cells assessed as viable cells at 4 nM incubated for 48 hrs by annexin V and 7-AAD staining based flow cytometry analysis (reference value: 90.47 %); type: functional; conditions: MV4-11, 48 h, read-out: Activity
# MV4-11 [14] = assay: Induction of apoptosis in human MV4-11 cells assessed as early apoptotic cells at 4 nM incubated for 48 hrs by annexin V and 7-AAD staining based flow cytometry analysis (reference value: 6.36 %); type: functional
# MV4-11 [15] = assay: Induction of apoptosis in human MV4-11 cells assessed as late apoptotic cells at 4 nM incubated for 48 hrs by annexin V and 7-AAD staining based flow cytometry analysis (reference value: 2.25 %); type: functional
# MV4-11 [16] = assay: Induction of apoptosis in human MV4-11 cells assessed as early apoptotic cells at 20 nM incubated for 48 hrs by annexin V and 7-AAD staining based flow cytometry analysis (reference value: 6.36 %); type: functional
# MV4-11 [17] = assay: Induction of apoptosis in human MV4-11 cells assessed as late apoptotic cells at 20 nM incubated for 48 hrs by annexin V and 7-AAD staining based flow cytometry analysis (reference value: 2.25 %); type: functional
# MV4-11 [18] = assay: Induction of apoptosis in human MV4-11 cells assessed as viable cells at 100 nM incubated for 48 hrs by annexin V and 7-AAD staining based flow cytometry analysis (reference value: 90.47 %); type: functional; conditions: MV4-11, 48 h, read-out: Activity
# MV4-11 [19] = assay: Induction of apoptosis in human MV4-11 cells assessed as late apoptotic cells at 100 nM incubated for 48 hrs by annexin V and 7-AAD staining based flow cytometry analysis (reference value: 2.25 %); type: functional
# MV4-11 [20] = assay: Induction of apoptosis in human MV4-11 cells assessed as necrotic cells at 100 nM incubated for 48 hrs by annexin V and 7-AAD staining based flow cytometry analysis (reference value: 0.91 %); type: functional
# MV4-11 [21] = assay: Induction of cell cycle arrest in human MV4-11 cells assessed as reduction in CDK2 expression at 0.16 to 100 nM by Western blot analysis; type: functional, cell-based
# MV4-11 [22] = assay: Induction of cell cycle arrest in human MV4-11 cells assessed as reduction in CDK4 expression at 0.16 to 100 nM by Western blot analysis; type: functional, cell-based
# MV4-11 [23] = assay: Induction of cell cycle arrest in human MV4-11 cells assessed as reduction in Cyclin E expression at 0.16 to 100 nM by Western blot analysis; type: functional, cell-based
# MV4-11 [24] = assay: Induction of cell cycle arrest in human MV4-11 cells assessed as reduction in Cyclin D2 expression at 0.16 to 100 nM by Western blot analysis; type: functional, cell-based
# MV4-11 [25] = assay: Induction of apoptosis in human MV4-11 cells assessed as increase in Caspase-9 cleavage at 0.16 to 100 nM by Western blot analysis; type: functional, cell-based
# [26] = Cmax in Sprague-Dawley rat at 5 mg/kg, iv; type: ADME, organism-based; parameters: dose 5 mg/kg, route intravenous; conditions: in vivo
# [27] = Tmax in Sprague-Dawley rat at 5 mg/kg, iv; type: ADME, organism-based; conditions: in vivo
# [28] = Half life in Sprague-Dawley rat at 5 mg/kg, iv; type: ADME, organism-based; conditions: in vivo
# [29] = AUC in Sprague-Dawley rat at 25 mg/kg, po; type: ADME, organism-based; conditions: in vivo
# [30] = Cmax in Sprague-Dawley rat at 25 mg/kg, po; type: ADME, organism-based; parameters: dose 25 mg/kg, route oral; conditions: in vivo
# [31] = Tmax in Sprague-Dawley rat at 25 mg/kg, po; type: ADME, organism-based; conditions: in vivo
# [32] = Half life in Sprague-Dawley rat at 25 mg/kg, po; type: ADME, organism-based; conditions: in vivo
# [33] = Clearance in Sprague-Dawley rat at 25 mg/kg, po; type: ADME, organism-based; conditions: in vivo
# [34] = Oral bioavailability in Sprague-Dawley rat at 25 mg/kg; type: ADME, organism-based; conditions: in vivo
# [35] = molecular target: Mast/stem cell growth factor receptor Kit (Homo sapiens, UniProt P10721)
# Description: Binding affinity to recombinant human KIT (571 to 972 residues) expressed in bacterial expression system by Kinomescan method
# [36] = molecular target: Platelet-derived growth factor receptor beta (Homo sapiens, UniProt P09619)
# Description: Binding affinity to recombinant human PDGFRB (582 to 1009 residues) expressed in bacterial expression system by Kinomescan method
# [37] = molecular target: Proto-oncogene tyrosine-protein kinase receptor Ret (Homo sapiens, UniProt P07949)
# Description: Binding affinity to recombinant human RET (713 to 1014 residues) expressed in bacterial expression system by Kinomescan method
# MOLM-13 = assay: cells; conditions: Homo sapiens, MOLM-13, 72 h
# Description: Cytotoxicity against human MOLM13 cells assessed as reduction in cell viability incubated for 72 hrs by CCK8 assay
# KG-1 = assay: cells; conditions: Homo sapiens, KG-1, 72 h
# Description: Cytotoxicity against human KG1 cells assessed as reduction in cell viability incubated for 72 hrs by CCK8 assay
# HL-60 = assay: cells; conditions: Homo sapiens, HL-60, 72 h
# Description: Cytotoxicity against human HL60 cells assessed as reduction in cell viability incubated for 72 hrs by CCK8 assay
# Sequence of Receptor-type tyrosine-protein kinase FLT3 (Homo sapiens), P36888 [UNDEFINED MUTATION] (P36888 whole entry, looked up, change not shown): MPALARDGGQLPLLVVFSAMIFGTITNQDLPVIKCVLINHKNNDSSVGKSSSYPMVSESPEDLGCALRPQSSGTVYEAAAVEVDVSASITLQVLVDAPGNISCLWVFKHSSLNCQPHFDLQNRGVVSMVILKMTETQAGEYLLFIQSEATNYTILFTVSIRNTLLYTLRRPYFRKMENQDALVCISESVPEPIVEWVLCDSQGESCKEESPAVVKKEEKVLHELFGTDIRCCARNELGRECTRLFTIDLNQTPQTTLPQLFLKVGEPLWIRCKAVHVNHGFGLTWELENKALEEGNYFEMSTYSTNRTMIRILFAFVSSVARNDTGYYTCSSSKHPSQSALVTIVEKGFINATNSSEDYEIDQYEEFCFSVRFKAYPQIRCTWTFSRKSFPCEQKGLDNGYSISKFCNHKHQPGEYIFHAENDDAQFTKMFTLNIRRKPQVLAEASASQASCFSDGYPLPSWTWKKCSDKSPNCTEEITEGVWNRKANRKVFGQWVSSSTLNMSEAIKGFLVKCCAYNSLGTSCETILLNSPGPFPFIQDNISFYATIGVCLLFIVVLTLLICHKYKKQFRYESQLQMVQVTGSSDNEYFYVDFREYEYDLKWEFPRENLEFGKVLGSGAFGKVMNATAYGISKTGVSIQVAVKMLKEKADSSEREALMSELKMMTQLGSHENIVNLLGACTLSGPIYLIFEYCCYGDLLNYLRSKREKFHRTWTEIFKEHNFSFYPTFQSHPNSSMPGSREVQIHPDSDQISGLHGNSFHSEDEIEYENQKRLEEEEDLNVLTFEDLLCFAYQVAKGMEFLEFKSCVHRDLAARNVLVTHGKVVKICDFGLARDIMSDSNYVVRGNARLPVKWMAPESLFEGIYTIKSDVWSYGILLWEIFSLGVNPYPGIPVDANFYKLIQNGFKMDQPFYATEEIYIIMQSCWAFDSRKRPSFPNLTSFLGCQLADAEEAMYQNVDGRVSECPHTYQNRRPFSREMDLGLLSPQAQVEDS
# Sequence of Platelet-derived growth factor receptor beta (P09619 whole entry): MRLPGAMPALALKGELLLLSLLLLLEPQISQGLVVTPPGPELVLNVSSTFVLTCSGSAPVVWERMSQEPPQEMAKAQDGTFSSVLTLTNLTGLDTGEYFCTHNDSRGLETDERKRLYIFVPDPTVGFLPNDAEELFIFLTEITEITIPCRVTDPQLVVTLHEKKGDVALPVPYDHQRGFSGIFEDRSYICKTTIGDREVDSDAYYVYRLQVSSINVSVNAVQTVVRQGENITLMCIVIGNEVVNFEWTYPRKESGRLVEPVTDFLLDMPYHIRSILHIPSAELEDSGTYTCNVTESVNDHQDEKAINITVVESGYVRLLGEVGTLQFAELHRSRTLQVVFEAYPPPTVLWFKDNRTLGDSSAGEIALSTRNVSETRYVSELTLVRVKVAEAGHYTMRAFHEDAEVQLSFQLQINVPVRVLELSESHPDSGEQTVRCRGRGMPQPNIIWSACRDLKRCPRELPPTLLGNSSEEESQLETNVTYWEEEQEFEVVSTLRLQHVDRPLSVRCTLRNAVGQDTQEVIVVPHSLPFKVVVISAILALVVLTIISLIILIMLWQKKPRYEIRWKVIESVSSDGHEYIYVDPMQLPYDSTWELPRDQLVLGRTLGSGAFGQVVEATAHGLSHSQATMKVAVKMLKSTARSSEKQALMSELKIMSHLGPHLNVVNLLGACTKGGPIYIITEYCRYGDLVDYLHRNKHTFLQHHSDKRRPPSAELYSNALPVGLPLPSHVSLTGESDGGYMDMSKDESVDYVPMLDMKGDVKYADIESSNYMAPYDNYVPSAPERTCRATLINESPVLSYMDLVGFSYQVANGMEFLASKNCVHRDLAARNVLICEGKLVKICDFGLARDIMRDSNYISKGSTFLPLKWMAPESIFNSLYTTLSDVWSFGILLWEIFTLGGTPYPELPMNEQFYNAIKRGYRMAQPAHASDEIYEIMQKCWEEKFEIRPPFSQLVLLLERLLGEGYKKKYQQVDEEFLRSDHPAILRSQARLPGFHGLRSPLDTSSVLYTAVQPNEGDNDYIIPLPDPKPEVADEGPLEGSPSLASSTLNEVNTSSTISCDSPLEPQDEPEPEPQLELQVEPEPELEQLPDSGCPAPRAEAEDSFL
# Sequence of Receptor-type tyrosine-protein kinase FLT3 (P36888 whole entry, looked up, change not shown, the tested form may be a part): as the sequence (P36888 whole entry, looked up, change not shown) above
# Sequence of Macrophage colony-stimulating factor 1 receptor (P07333 whole entry, the tested form may be a part): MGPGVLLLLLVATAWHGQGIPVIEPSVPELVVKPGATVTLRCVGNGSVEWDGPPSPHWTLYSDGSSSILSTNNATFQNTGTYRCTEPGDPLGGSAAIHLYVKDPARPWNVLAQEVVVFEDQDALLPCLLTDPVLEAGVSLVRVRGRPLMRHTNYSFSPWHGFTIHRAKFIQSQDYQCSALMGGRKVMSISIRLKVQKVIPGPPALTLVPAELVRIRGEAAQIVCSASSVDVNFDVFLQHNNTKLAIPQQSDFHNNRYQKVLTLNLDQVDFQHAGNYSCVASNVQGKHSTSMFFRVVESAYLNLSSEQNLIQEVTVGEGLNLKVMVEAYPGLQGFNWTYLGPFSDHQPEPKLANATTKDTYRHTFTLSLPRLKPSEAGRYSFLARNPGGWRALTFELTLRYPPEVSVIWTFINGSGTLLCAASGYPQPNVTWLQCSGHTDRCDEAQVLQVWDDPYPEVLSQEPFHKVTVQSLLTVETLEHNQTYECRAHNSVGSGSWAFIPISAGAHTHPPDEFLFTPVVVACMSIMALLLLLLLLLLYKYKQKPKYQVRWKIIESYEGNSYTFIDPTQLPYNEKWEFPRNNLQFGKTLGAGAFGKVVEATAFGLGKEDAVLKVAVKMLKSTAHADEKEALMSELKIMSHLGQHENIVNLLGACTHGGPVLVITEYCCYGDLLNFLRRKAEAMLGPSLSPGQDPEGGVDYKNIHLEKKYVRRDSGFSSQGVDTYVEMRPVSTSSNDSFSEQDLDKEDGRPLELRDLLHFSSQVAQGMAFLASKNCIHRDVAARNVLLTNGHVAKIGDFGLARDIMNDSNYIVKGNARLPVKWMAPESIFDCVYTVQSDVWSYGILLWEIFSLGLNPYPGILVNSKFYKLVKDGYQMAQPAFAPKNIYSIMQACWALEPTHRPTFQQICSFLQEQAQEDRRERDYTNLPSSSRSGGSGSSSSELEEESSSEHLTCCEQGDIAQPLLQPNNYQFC
# Sequence of Mast/stem cell growth factor receptor Kit (P10721 whole entry): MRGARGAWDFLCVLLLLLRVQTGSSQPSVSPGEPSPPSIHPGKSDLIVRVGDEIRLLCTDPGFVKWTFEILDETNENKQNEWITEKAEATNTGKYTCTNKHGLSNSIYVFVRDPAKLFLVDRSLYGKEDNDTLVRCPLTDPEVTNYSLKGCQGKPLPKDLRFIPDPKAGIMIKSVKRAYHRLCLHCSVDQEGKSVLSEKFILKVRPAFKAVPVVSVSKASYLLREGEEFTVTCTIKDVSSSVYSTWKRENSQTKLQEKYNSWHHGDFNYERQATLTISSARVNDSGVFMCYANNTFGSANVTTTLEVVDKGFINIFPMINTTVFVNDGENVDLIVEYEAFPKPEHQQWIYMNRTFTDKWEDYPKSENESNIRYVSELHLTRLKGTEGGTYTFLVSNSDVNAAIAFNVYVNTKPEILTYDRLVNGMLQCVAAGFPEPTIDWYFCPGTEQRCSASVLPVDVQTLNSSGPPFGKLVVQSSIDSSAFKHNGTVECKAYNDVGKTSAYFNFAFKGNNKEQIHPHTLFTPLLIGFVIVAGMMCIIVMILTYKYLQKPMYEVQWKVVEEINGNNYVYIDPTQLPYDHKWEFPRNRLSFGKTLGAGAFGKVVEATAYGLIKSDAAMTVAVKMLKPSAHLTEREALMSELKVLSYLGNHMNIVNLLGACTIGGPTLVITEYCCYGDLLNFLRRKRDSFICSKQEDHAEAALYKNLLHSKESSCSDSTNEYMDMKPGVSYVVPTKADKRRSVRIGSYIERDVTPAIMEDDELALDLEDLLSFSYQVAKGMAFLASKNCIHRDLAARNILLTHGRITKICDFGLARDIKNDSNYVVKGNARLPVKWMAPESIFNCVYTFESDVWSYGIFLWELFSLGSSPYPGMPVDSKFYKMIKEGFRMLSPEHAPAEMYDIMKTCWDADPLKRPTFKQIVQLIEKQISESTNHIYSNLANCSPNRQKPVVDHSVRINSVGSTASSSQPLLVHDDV
structure (smiles),measurement,setting,value
CC(C)(C)c1cc(NC(=O)Nc2ccc(-c3cn(-c4ccc(OCCN5CCOCC5)cc4Cl)nn3)cc2)no1,IC50,[1],32.8 nM
same,Kd,[2],100 nM
same,inhibition,[3],Active
same,inhibition,[4],100%
same,Activity,MV4-11 [5],66.16%
same,Activity,MV4-11 [6],15.39%
same,Activity,MV4-11 [7],18.42%
same,Activity,MV4-11 [8],5.68%
same,Activity,MV4-11 [9],6.53%
same,Activity,MV4-11 [10],89.92%
same,Activity,MV4-11 [11],4.98%
same,Activity,MV4-11 [12],5.11%
same,viability at 0.004 µM,MV4-11 [13],88.7%
same,Activity,MV4-11 [14],7.51%
same,Activity,MV4-11 [15],2.64%
same,Activity,MV4-11 [16],10.62%
same,Activity,MV4-11 [17],4.31%
same,viability at 0.1 µM,MV4-11 [18],71.6%
same,Activity,MV4-11 [19],12.1%
same,Activity,MV4-11 [20],3.25%
same,Activity,MV4-11 [21],Active
same,Activity,MV4-11 [22],Active
same,Activity,MV4-11 [23],Active
same,Activity,MV4-11 [24],Active
same,Activity,MV4-11 [25],Active
same,Cmax,[26],6850 ng/mL
same,Tmax,[27],0.25 h
same,half-life,[28],5.11 h
same,AUC,[29],41300 ng·h/mL
same,Cmax,[30],3220 ng/mL
same,Tmax,[31],4 h
same,half-life,[32],6.77 h
same,CL/F,[33],10.6 mL/min/kg
same,bioavailability,[34],35.8%
same,Kd,[35],21 nM
same,Kd,[36],8.1 nM
same,Kd,[37],24 nM
same,GI50,MOLM-13,5.9 nM
same,GI50,KG-1,> 3000 nM
same,GI50,HL-60,> 3000 nM
